Measurements published in patent publication US8247211B2, “Glycopeptide antibiotics” (American Cyanamid Company, priority 2001, dated 2012).
≈ marks a conversion by molar mass, not a printed value.

Legend:
Test in all cases: In vitro antibacterial evaluation: minimum inhibitory concentration (MIC), broth dilution method
Format in all cases: cell-based
Enterococcus sp. = settings: broth dilution, 5×10^5 CFU/mL, 18 hours at 35° C.
Protocol: (§1) The minimum inhibitory concentration (MIC), the lowest concentration of the antibiotic which inhibits growth of the test organism, is determined by the broth dilution method using Muller-Hinton II […] (Baltimore Biological Laboratories) following the recommendations of the National Committee for Clinical Laboratory Standards [Methods for dilution antimicrobial susceptibility tests for bacteria that grow aerobically, approved standard M7-A2, National Committee for Clinical Laboratory Standards, Villanova, Pa].
(§2) An inoculum level of 5×10^5 CFU/mL, and a range of antibiotic concentrations (64-0.06 μg/mL) is used. […] The test organisms include a spectrum of Gram-positive bacteria comprised of Staphylococcus sp., Streptococcus sp. and Enterococcus sp. These organisms include recent clinical isolates that are resistant to methicillin, penicillin and/or vancomycin.

Escherichia coli = settings: 5×10^5 CFU/mL, 18 hours at 35° C.
Protocol: as §1, §2

Staphylococcus sp. = settings: for MIC Staphylococcus aureus (ATCC 29213): strain ATCC 29213; for MIC Staphylococcus aureus (GC 1131): strain GC 1131; for MIC Staphylococcus aureus (GC 3051): strain GC 3051; for MIC Staphylococcus aureus (GC 3053): strain GC 3053; for MIC Staphylococcus aureus (GC 4541): strain GC 4541; for MIC Staphylococcus aureus (GC 4542): strain GC 4542; for MIC Staphylococcus aureus-SMITH (GC 4543): strain GC 4543; for MIC Staphylococcus aureus (GC 4544): strain GC 4544; for MIC Staphylococcus aureus (GC 4545): strain GC 4545; for MIC Staphylococcus haemolyticus (GC 4546): strain GC 4546; for MIC Coagulase Negative Staphylococcus (GC 4547): strain GC 4547; for MIC Coagulase Negative Staphylococcus (GC 4548): strain GC 4548; for MIC Coagulase Negative Staphylococcus (GC 4549): strain GC 4549; for MIC Coagulase Negative Staphylococcus (GC 4551): strain GC 4551; for MIC Coagulase Negative Staphylococcus (GC 6257): strain GC 6257
Protocol: as §1, §2

Streptococcus sp. = settings: broth dilution, 5×10^5 CFU/mL, 18 hours at 35° C.
Protocol: as §1, §2

[1] = broth dilution, 18 hours at 35° C.

## CC(C)=CCCC1OCC2OC(OC3C(CO)OC(Oc4ccc(CC5NC(=O)C(C(C)c6ccccc6)NC(=O)CNC(=O)C(CO)NC(=O)C(C(O)C6CNC(=N)N6C6OC(CO)C(O)C(O)C6O)NC(=O)C(C(O)C6CNC(=N)N6)NC5=O)cc4)C(O)C3O)C(O)C(O)C2O1 (stereo not drawn) [Example 123, Cyclo[glycyl-β-methylphenylalanyl-O-[4-O-[4,6-O-[5-methylhex-4-en-1-ylidene)hexopyranosyl]hexopyranosyl]tyrosyl-3-[2-iminoimidazolidin-4-yl)seryl-3-(3-hexopyranosyl-2-iminoimidazolidin-4-yl)serylseryl]]
Enterococcus sp.
  MIC Enterococccus avium (GC 4558): 16 µg/mL (≈ 11.5 µM)
  MIC Enterococccus faecalis (ATCC 29212): 8 µg/mL (≈ 5.76 µM)
  MIC Enterococccus faecalis (GC 2691): 16 µg/mL (≈ 11.5 µM)
  MIC Enterococccus faecalis (GC 3059): 16 µg/mL (≈ 11.5 µM)
  MIC Enterococccus faecalis (GC 4552): 8 µg/mL (≈ 5.76 µM)
  MIC Enterococccus faecalis (GC 4553): 16 µg/mL (≈ 11.5 µM)
  MIC Enterococccus faecalis (GC 4554): 16 µg/mL (≈ 11.5 µM)
  MIC Enterococccus faecalis (GC 6189): 8 µg/mL (≈ 5.76 µM)
  MIC Enterococccus faecium (GC 2243): 8 µg/mL (≈ 5.76 µM)
  MIC Enterococccus faecium (GC 4556): 8 µg/mL (≈ 5.76 µM)
  MIC Enterococccus faecium (GC 4557): 8 µg/mL (≈ 5.76 µM)
  MIC Enterococcus faecalis (GC 2242): 8 µg/mL (≈ 5.76 µM)
Escherichia coli
  MIC Escherichia coli (ATCC 25922): >64 µg/mL
  MIC Escherichia coli (GC 4559): >64 µg/mL
  MIC Escherichia coli (GC 4560): 8 µg/mL (≈ 5.76 µM)
Staphylococcus sp.
  MIC Staphylococcus aureus (ATCC 29213): 8 µg/mL (≈ 5.76 µM)
  MIC Staphylococcus aureus (GC 1131): 8 µg/mL (≈ 5.76 µM)
  MIC Staphylococcus aureus (GC 3051): 8 µg/mL (≈ 5.76 µM)
  MIC Staphylococcus aureus (GC 3053): 8 µg/mL (≈ 5.76 µM)
  MIC Staphylococcus aureus (GC 4541): 4 µg/mL (≈ 2.88 µM)
  MIC Staphylococcus aureus (GC 4542): 4 µg/mL (≈ 2.88 µM)
  MIC Staphylococcus aureus (GC 4544): 8 µg/mL (≈ 5.76 µM)
  MIC Staphylococcus aureus (GC 4545): 8 µg/mL (≈ 5.76 µM)
  MIC Staphylococcus haemolyticus (GC 4546): 8 µg/mL (≈ 5.76 µM)
  MIC Coagulase Negative Staphylococcus (GC 4547): 8 µg/mL (≈ 5.76 µM)
  MIC Coagulase Negative Staphylococcus (GC 4548): 4 µg/mL (≈ 2.88 µM)
  MIC Coagulase Negative Staphylococcus (GC 4549): 4 µg/mL (≈ 2.88 µM)
  MIC Coagulase Negative Staphylococcus (GC 4551): 8 µg/mL (≈ 5.76 µM)
  MIC Coagulase Negative Staphylococcus (GC 6257): 4 µg/mL (≈ 2.88 µM)
Staphylococcus sp.; [1]
  MIC Staphylococcus aureus (ATCC 29213): 8 µg/mL (≈ 5.76 µM)
  MIC Staphylococcus aureus (GC 1131): 8 µg/mL (≈ 5.76 µM)
  MIC Staphylococcus aureus (GC 3051): 8 µg/mL (≈ 5.76 µM)
  MIC Staphylococcus aureus (GC 3053): 8 µg/mL (≈ 5.76 µM)
  MIC Staphylococcus aureus (GC 4541): 4 µg/mL (≈ 2.88 µM)
  MIC Staphylococcus aureus (GC 4542): 4 µg/mL (≈ 2.88 µM)
  MIC Staphylococcus aureus-SMITH (GC 4543): 4 µg/mL (≈ 2.88 µM)
  MIC Staphylococcus aureus (GC 4544): 8 µg/mL (≈ 5.76 µM)
  MIC Staphylococcus aureus (GC 4545): 8 µg/mL (≈ 5.76 µM)
  MIC Staphylococcus haemolyticus (GC 4546): 8 µg/mL (≈ 5.76 µM)
  MIC Coagulase Negative Staphylococcus (GC 4547): 8 µg/mL (≈ 5.76 µM)
  MIC Coagulase Negative Staphylococcus (GC 4548): 4 µg/mL (≈ 2.88 µM)
  MIC Coagulase Negative Staphylococcus (GC 4549): 4 µg/mL (≈ 2.88 µM)
  MIC Coagulase Negative Staphylococcus (GC 4551): 8 µg/mL (≈ 5.76 µM)
  MIC Coagulase Negative Staphylococcus (GC 6257): 4 µg/mL (≈ 2.88 µM)
Staphylococcus sp.; 18 hours at 35° C.
  MIC Staphylococcus aureus-SMITH (GC 4543): 4 µg/mL (≈ 2.88 µM)
Streptococcus sp.
  MIC Streptococcus agalactiae (GC 4564): 2 µg/mL (≈ 1.44 µM)
  MIC Streptococcus pneumoniae (GC 1894): 1 µg/mL (≈ 0.72 µM)
  MIC Streptococcus pneumoniae (GC 4565): 2 µg/mL (≈ 1.44 µM)
  MIC Streptococcus pneumonine (ATCC 6301): 1 µg/mL (≈ 0.72 µM)
  MIC Streptococcus pyogenes (GC 4563): 0.5 µg/mL (≈ 0.36 µM)
